According to PMC8745263 (International Journal of Molecular Sciences, 2021):
Entries after “also recorded” stand apart in the source; their conditions may differ. Read-outs that look alike come from different tables or passages of the source.

Legend:
[1] = target: T1, APEH (partially purified from human red blood cells) (Homo sapiens, UniProt P13798); experiment: APEH enzyme inhibition assay with substrate Ac-Met-AMC; assay type: biochemical; details: inhibitor 62 µM, APEH sample 0.7 μg, pre-incubated 30 min at 37 °C, then Ac-Met-AMC added; data not shown
T1 construct: incubated with APEH partially purified from human blood cells; from tissue; host or cells: human red blood cells (erythrocyte hemolysate from donors' blood)
T1 sequence (P13798 1-732): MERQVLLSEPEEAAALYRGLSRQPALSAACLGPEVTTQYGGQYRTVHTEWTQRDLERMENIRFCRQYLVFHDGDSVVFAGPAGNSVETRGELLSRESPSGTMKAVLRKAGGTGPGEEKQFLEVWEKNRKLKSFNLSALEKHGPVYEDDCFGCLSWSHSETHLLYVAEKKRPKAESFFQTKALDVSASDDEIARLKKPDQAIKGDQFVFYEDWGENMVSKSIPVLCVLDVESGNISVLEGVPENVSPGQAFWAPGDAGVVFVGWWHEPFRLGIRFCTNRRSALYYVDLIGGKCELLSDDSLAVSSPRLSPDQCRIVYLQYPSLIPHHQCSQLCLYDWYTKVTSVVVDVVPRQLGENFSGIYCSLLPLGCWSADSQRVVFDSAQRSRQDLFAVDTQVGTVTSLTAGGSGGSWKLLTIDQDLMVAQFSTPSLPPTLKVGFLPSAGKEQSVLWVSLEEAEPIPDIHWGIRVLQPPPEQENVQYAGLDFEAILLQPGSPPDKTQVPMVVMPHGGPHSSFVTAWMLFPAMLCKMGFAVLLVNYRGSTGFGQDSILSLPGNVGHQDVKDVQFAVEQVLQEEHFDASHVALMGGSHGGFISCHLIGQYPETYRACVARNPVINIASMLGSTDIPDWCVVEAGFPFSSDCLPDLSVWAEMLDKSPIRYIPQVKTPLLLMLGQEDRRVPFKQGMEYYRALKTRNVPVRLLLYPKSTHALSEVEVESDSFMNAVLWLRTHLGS
Procedure: Human APEH was obtained as a partially purified product from the red blood cells by a combination of anion exchange and gel filtration chromatography as described. The purification procedure was monitored by SDS-PAGE analysis of active pooled fractions (Supplementary Figure S3). Specifically, each peak fraction eluted from the gel filtration column was assayed with the specific APEH substrate Ac-Met-AMC and analyzed by Western blotting to assess the identity of the enzyme, using the commercial APEH from porcine liver (APEHpl) as control (Supplementary Figure S4A,B). The molecular mass determined by SDS-PAGE of the partially purified protein was 75 kDa, in agreement with that predicted on the basis of the amino acid sequence. Moreover, gel filtration chromatography on Superdex 200 column allowed estimating a molecular mass for the native APEH of […] as calculated by the calibration curve (Supplementary Figure S4A), confirming that the enzyme is a homo-tetramer composed of four 75 kDa subunits, as already reported.
Blood samples were taken from donors using syringes with heparin. […] Enzyme purification was monitored using Ac-Met-7-amino-4-methylcoumarin (AMC) as substrate. Active fractions were analyzed by SDS-PAGE (12%) in order to evaluate the enrichment of the protein during the various purification steps. […]

[2] = test system: APEH; experiment: APEH partially purified from human blood cells (0.7 μg, 24.000 total units) in Tris-HCl 25 mM pH 7.5; details: 37 °C, up to 48 h
[3] = test system: APEH; details: cited from earlier work
[4] = test system: truncated form of APEH; details: cited from earlier work

**Q.** With `CC(C)CC(O)(CC(C)C)c1cnn(C(=O)N2CCCC2)n1` [AA74-1] as the compound, how does the “inhibition of APEH activity” value [1] read?
**A.** The value was “totally inhibited”.

**Q.** For Ac-EYM(ox)FM(ox)QEYPHTHLVQQA-NH2, which not cleaved [2] is on record?
**A.** Its not cleaved is “did not undergo cleavage on Q62”.

**Q.** Which cleaved bond [3] does the source give for “…^205FGERALKAWSVARL ↓ SQKFPKAEF^227… …^397LGEYGFQNALIVRY ↓ TRKVPQVST^419… …^493DETYVPKAFDEKLF ↓ TFHADICTL^515…” here?
**A.** Its cleaved bond is “L-S and Y-T and F-T”.

**Q.** With GIVEQC(ox)C(ox)ASVC(ox)SLYQLENYC(ox)N as the compound, how does the cleaved bond [4] read?
**A.** The cleaved bond was “A-S and Y-Q”.

**Q.** With Ac-EYAAM(ox)QKYPHTHLVQQA-NH2 as the compound, how does the cleaved bond [2] read?
**A.** Its cleaved bond is “Q62-Q; also recorded: H59-L, major”.

**Q.** For Ac-EYM(ox)FM(ox)QKYPHTHLVQQA-NH2, which cleaved bond [2] is on record?
**A.** The cleaved bond was “H59-L60, major; also recorded: Q62-Q; also recorded: L60-V”.
